“Also recorded” adds a separate entry of the source.
Experiments:
RPN13 = RPN13 (Homo sapiens, UniProt Q16186); assay: Rpn13 immunoblot in RPMI-8226 cells; type: cell-based; design: endogenous in cells; host or cells: MM.1S; MM.1S-CRBN KO; RPMI-8226; ANBL6.BR; settings: RPMI-8226 (p53-mutated); 400 nM; 16 hours
Experimental: (§1) MM.1S cells, which were treated with DMSO control, bortezomib, or WL40 at indicated concentration for 3 hours; protein lysates were analyzed for different proteasome activities (CT-L, chymotrypsin-like; T-L, trypsin-like; C-L, caspase-like). FIG. 20B is a bar graph showing percent proteasome activity after normalization with DMSO control (mean±SD; n=3). Recombinant 20S proteasome was incubated with DMSO, bortezomib, or WL40 for 30 minutes, followed by assessment of the above-noted proteasome activities. FIG. 20C MM.1S cells were pretreated with exemplary proteasome inhibitor MG132 (10 μM) for 1 hour, followed by addition of WL40 (400 nM) for 8 hours. […] Total protein lysates were subjected to immunoblots for Rpn13 and α-tubulin. […] FIG. 20E ANBL6.BR cells were treated with WL40 (400 nM) or RA190 (500 nM) for 16 hours; protein lysates were subjected to immunoblot analysis using anti-Rpn13 or anti-β-actin Abs.
(§2) Cellular protein extracts were prepared using RIPA lysis buffer (50 mM Tris-HCl, 150 mM NaCl, 1% NP-40, 0.5% sodium deoxycholate, and 0.1% SDS). […]
(§3) Next, the effect of WL40 on additional MM cell lines, including p53-mutated RPMI-8226 cells or bortezomib-resistant ANBL6.BR cells, was evaluated. […]

[1] = system: multiple myeloma cell lines; assay: Viability of a panel of multiple myeloma cell lines; type: cell-based, Human
Description: FIGS. […] Wst-1 assay was used to test cell viability. FIGS. 6A and 6B show the effect of exemplary bifunctional compounds WL40 and WL44 on multiple myeloma cell lines.

[2] = system: Ub-tagged GFP that is constitutively targeted for proteasomal degradation; assay: Ub-GFP (GFPu-1) reporter cell line immunoblot; type: cell-based; settings: 16 hours
Experimental: Cell lysates were loaded on SDS-PAGE, transferred to PVDF membrane, then immunoblotted with anti-GFP, and anti beta-actin antibodies.
In FIG. 18, a reporter cell line expressing Ub-tagged GFP that is constitutively targeted for proteasomal degradation was treated with RA190 ([…]); and JQRA ([…]) for 16 hours. Cell lysates were loaded on SDS-PAGE, transferred to PVDF membrane, then immunoblotted with anti-GFP, and anti-alpha tubulin antibodies.
FIGS. 19A-19I show the exemplary design and characterization of exemplary Rpn13 degrader WL40. […] WL40 was created by linking the Rpn13 inhibitor RA190 to the IMiD thalidomide as a ligand for the CRBN E3 ligase via a PEG linker. […] FIG. 19C is a schematic cartoon for the novel AlphaScreen assay to measure the binding activity of inhibitor with RPN13 proteins. […] FIG. 19E depicts immunoblot analysis of multiple myeloma 1S (MM.1S) cells, which were treated with WL40 or RA190 at the indicated concentrations and time periods; protein lysates were subjected to the immunoblot analysis using anti-Rpn13 or anti-tubulin Abs. FIG. 19F depicts flow cytometry analysis of MM.1S cells, which were treated with DMSO control, WL40 (400 nM), or RA190 (500 nM) for 16 hours; cells were then washed and stained with Rpn13 Ab conjugated with AlexaFluor-647, followed by the flow cytometry analysis. Isotype Ab conjugated to AlexaFluor-647 was used as control for non-specific binding. Data was quantified using FACS Diva (BD Biosciences, USA) and FlowJo (FlowJo LLC, USA). FIG. 19G depicts immunoblot analysis of MM.1S-CRBN KO cells, which were treated with WL40 (400 nM) or RA190 (500 nM) for 16 hours; protein lysates were subjected to the immunoblot analysis using anti-Rpn13 or anti β-actin Abs. […]
To confirm that CRBN presence is a prerequisite for the function of WL40 in cells, CRBN-knockout (KO) MM.1S cells^27, 38 were utilized, and the effect of WL40 on Rpn13 degradation was examined. […] GFPu-1 cells were treated with WL40, and GFP levels were then analyzed using immunoblotting. […]

[3] = system: UPR proteins (BIP, PERK, phosphorylated eIF2α, calnexin); assay: UPR protein immunoblot; type: cell-based, Human; settings: ANBL6.BR (1 μM) and MM.1S (WL40 200 nM, RA190 300 nM)
[4] = system: polyubiquitinated (PolyUb) protein; assay: Polyubiquitinated protein immunoblot in MM.1S and ANBL6.BR cells; type: cell-based, Human; settings: MM.1S: WL40 200 nM, RA190 300 nM, bortezomib 5 nM; ANBL6.BR: WL40 1 μM 6 hours
Experimental: as §1, §2, §3

Chain of RPN13 (Q16186 whole entry): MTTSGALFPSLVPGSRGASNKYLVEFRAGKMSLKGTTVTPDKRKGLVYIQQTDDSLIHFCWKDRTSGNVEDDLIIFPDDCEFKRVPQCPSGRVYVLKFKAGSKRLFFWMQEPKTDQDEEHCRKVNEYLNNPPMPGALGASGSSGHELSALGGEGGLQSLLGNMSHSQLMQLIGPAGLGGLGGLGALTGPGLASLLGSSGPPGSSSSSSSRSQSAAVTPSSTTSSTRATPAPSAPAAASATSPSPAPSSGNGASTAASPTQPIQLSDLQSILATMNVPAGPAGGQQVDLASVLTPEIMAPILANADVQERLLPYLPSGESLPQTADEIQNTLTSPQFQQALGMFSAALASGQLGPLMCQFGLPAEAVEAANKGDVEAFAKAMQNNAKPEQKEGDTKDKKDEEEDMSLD

Structure (SMILES) | Rpn13 levels (immunoblot) (RPN13) | cell viability IC50 ([1]; multiple myeloma cell lines, 48 hours, Wst-1) | Ub-GFP levels / proteasome function (immunoblot) ([2]; WL40, WL44 0.5-2.0 μM, RA190 1 μM) | induction of UPR signaling [3] | PolyUb protein accumulation (immunoblot) [4] | cytotoxicity (percentage of viable cells) ([1]; different multiple myeloma cell lines, 72 hours) | Ub-GFP levels / proteasome function (immunoblot) ([2]; 312 μM, 625 μM, 1250 μM, 2500 μM, 5000 μM)
O=C1CCC(N2C(=O)c3cccc(NCCOCCOCCOCCC(=O)N[C@@H](Cc4ccccc4)C(=O)N4C/C(=C\c5ccc(Cl)c(Cl)c5)C(=O)/C(=C/c5ccc(Cl)c(Cl)c5)C4)c3C2=O)C(=O)N1 (some centres unmarked) [WL40] | induced RPN13 degradation | high IC50 in several cell lines | block proteasome function; also recorded: increases GFP levels | rapid and robust induction of UPR proteins | marked increase in PolyUb proteins; also recorded: more rapid and higher molecular weight PolyUb versus bortezomib | – | –
Cl.N[C@@H](Cc1ccccc1)C(=O)N1C/C(=C/c2ccc(Cl)c(Cl)c2)C(=O)/C(=C\c2ccc(Cl)c(Cl)c2)C1 [RA190, reference compound] | – | – | – | delayed kinetics and to a lesser extent than Rpn13 degrader WL40 | – | stronger cytotoxicity than JQRA | blocks proteasome function

From US11702402B2, “Small molecules that block proteasome-associated ubiquitin receptor RPN13 function and uses thereof” (DANA-FARBER CANCER INSTITUTE, INC., priority 2018, dated 2023)
